Values of other authors, collected in patent publication US5840893A, “Compounds for treating infectious diseases” (priority 1996, dated 1998).

System: importation of HIV-1 into the nucleus
Conditions: 0.1M peptide in medium; aphidicolin-arrested CD4+ MT4 cells; cited from earlier work

SV40 T-antigen NLS: the peptide having the sequence of the SV40 T-antigen NLS (PKKKRKV)
block of HIV-1 importation into the nucleus: blocked the importation of HIV-1 into the nucleus
